Laboratory results as given in ChEMBL document CHEMBL1145498, “A systematic interaction map of validated kinase inhibitors with Ser/Thr kinases” (Proc Natl Acad Sci U S A, 2007).

What was measured:
[1] = molecular target: Cyclin-dependent kinase-like 1 (Homo sapiens) (UniProt Q00532)
[2] = molecular target: Dual specificity mitogen-activated protein kinase kinase 2 (Homo sapiens, UniProt P36507)
[3] = molecular target: STE20-like serine/threonine-protein kinase (Homo sapiens) (UniProt Q9H2G2)
[4] = molecular target: Calcium/calmodulin-dependent protein kinase kinase 2 (Homo sapiens, UniProt Q96RR4)
Sequence of Calcium/calmodulin-dependent protein kinase kinase 2 (Q96RR4 2-588 limits assumed): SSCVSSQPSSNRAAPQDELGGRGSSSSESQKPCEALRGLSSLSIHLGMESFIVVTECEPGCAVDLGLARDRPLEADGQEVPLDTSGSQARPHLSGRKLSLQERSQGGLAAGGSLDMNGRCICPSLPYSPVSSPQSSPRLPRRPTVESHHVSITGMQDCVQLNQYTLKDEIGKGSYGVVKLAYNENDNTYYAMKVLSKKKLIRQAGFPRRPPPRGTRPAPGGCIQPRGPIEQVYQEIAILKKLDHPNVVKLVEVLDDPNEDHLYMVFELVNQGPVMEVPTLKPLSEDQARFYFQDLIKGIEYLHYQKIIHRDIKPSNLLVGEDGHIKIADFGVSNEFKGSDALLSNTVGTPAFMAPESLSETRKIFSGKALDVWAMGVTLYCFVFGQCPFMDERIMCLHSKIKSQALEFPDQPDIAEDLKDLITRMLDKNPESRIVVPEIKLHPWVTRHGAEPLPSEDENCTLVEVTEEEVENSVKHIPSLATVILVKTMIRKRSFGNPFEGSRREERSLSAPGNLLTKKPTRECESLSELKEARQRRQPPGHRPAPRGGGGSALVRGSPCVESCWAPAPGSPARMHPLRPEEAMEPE

[5] = molecular target: T1, Serine/threonine-protein kinase 4 (Homo sapiens) (UniProt Q13043)
T1 sequence (whole entry): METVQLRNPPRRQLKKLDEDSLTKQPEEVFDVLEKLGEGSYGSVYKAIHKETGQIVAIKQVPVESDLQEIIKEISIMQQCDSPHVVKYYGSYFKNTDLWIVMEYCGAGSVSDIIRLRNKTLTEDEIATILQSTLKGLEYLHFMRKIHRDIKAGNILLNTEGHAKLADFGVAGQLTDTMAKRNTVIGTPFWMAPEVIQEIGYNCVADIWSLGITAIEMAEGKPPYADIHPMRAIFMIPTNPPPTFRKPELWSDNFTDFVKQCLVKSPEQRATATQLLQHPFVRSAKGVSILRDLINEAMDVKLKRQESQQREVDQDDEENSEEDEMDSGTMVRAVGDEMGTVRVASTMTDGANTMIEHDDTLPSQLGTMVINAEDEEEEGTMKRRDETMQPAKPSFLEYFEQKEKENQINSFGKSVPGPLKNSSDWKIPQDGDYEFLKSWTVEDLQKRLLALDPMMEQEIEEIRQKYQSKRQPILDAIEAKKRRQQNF

[6] = molecular target: T2, Dual specificity mitogen-activated protein kinase kinase 6 (Homo sapiens) (UniProt P52564)
T2 sequence (whole entry): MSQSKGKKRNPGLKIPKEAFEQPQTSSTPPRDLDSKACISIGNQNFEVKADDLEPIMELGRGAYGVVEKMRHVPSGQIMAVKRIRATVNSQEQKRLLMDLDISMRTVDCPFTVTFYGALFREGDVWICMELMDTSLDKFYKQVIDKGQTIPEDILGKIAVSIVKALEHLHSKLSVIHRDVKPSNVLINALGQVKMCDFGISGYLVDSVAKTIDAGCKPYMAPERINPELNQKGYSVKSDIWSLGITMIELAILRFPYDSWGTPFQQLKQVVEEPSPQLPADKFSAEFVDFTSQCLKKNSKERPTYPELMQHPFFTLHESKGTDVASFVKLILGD

[7] = tested on: THP-1; experiment: Inhibition of LPS-stimulated TNFalpha production in human THP1 cells; assay type: functional, cell-based
[8] = molecular target: Dual specificity protein kinase CLK2 (Homo sapiens) (UniProt P49760)
Sequence of Dual specificity protein kinase CLK2 (Homo sapiens) (P49760 whole entry, looked up): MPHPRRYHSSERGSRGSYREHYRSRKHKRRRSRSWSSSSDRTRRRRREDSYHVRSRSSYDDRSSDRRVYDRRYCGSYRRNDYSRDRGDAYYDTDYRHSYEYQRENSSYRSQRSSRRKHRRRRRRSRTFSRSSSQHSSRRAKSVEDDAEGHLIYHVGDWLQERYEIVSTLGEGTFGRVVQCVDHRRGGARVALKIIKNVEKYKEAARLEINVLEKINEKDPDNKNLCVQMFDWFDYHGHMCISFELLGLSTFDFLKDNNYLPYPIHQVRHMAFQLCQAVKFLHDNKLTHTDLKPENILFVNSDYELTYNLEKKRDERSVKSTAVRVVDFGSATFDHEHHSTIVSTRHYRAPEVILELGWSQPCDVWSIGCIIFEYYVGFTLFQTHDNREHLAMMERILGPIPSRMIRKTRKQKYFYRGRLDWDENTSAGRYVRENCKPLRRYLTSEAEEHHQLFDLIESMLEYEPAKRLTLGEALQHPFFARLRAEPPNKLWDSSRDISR

[9] = molecular target: Glycogen synthase kinase-3 beta (Homo sapiens, UniProt P49841)
Sequence of Glycogen synthase kinase-3 beta (P49841 whole entry, looked up): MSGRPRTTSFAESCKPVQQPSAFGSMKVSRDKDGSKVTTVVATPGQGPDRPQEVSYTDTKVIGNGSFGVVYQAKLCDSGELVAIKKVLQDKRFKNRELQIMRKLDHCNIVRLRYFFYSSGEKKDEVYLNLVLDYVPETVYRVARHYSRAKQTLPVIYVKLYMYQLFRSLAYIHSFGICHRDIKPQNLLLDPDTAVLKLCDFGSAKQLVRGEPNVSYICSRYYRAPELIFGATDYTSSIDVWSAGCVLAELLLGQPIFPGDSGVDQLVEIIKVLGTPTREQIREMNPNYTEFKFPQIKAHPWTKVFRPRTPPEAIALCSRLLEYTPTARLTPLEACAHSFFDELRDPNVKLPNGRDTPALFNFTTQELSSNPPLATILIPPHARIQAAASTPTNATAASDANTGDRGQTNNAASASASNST

[10] = molecular target: Serine/threonine-protein kinase Nek6 (Homo sapiens) (UniProt Q9HC98)
Sequence of Serine/threonine-protein kinase Nek6 (Homo sapiens) (Q9HC98 whole entry, canonical isoform): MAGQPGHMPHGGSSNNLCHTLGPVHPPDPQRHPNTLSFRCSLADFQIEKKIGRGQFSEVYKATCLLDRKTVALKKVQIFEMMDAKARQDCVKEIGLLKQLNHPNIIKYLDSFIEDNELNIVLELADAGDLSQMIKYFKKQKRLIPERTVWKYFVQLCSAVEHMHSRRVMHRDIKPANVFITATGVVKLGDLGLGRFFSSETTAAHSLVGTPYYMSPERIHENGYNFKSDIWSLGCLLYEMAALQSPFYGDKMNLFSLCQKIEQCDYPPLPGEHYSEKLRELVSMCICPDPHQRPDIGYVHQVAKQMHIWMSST

[11] = molecular target: Casein kinase I isoform gamma-3 (Homo sapiens) (UniProt Q9Y6M4)
Sequence of Casein kinase I isoform gamma-3 (Homo sapiens) (Q9Y6M4 whole entry, looked up, canonical isoform): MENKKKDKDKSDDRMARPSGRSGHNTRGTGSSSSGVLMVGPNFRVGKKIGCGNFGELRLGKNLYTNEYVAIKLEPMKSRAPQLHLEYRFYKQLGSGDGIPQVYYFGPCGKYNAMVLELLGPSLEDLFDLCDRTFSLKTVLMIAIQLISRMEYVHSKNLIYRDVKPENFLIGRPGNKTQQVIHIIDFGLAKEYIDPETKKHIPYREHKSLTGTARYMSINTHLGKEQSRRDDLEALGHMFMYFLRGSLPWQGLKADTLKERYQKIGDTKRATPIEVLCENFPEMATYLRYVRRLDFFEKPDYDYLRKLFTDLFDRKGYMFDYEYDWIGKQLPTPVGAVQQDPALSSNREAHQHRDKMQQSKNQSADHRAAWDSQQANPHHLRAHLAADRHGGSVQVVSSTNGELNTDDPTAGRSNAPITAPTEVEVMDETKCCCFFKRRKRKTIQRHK

[12] = molecular target: Proto-oncogene tyrosine-protein kinase Src (Homo sapiens, UniProt P12931); experiment: Inhibition of Src; conditions: read-out: IC50
[13] = molecular target: Mast/stem cell growth factor receptor Kit (Homo sapiens, UniProt P10721); experiment: Inhibition of c-kit
[14] = molecular target: Mitogen-activated protein kinase 3 (Homo sapiens, UniProt P27361); experiment: Inhibition of ERK1
Sequence of Mitogen-activated protein kinase 3 (P27361 whole entry): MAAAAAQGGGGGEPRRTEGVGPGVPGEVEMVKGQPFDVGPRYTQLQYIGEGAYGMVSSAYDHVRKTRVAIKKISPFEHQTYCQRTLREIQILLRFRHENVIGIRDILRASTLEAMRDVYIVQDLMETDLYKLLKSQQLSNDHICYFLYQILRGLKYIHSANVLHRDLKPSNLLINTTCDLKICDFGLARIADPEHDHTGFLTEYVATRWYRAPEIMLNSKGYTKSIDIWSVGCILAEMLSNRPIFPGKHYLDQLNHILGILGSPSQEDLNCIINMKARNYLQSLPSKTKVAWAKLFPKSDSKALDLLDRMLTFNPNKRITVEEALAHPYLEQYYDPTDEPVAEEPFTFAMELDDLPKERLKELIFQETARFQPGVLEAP

Sequence of Dual specificity mitogen-activated protein kinase kinase 2 (P36507 whole entry): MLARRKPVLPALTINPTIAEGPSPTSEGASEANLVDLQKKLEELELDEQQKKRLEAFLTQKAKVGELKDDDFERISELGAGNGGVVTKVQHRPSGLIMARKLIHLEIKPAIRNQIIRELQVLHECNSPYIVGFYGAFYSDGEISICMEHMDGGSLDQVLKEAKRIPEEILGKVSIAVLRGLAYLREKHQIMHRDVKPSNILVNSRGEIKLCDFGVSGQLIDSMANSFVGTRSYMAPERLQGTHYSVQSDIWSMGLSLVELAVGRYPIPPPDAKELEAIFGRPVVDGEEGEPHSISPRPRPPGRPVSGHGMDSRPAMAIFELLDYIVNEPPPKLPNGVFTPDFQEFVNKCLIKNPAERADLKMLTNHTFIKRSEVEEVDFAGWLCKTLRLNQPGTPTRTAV
Sequence of Cyclin-dependent kinase-like 1 (Homo sapiens) (Q00532 whole entry): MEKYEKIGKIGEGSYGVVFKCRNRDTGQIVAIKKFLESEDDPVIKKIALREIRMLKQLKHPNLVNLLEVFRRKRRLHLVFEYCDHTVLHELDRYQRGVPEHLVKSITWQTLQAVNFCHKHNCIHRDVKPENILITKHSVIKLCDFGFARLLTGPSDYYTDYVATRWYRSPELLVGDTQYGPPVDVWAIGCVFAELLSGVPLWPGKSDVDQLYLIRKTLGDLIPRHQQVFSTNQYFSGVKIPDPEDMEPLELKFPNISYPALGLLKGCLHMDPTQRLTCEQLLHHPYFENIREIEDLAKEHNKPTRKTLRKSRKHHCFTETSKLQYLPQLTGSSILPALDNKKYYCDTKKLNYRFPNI
Sequence of STE20-like serine/threonine-protein kinase (Homo sapiens) (Q9H2G2 whole entry, looked up): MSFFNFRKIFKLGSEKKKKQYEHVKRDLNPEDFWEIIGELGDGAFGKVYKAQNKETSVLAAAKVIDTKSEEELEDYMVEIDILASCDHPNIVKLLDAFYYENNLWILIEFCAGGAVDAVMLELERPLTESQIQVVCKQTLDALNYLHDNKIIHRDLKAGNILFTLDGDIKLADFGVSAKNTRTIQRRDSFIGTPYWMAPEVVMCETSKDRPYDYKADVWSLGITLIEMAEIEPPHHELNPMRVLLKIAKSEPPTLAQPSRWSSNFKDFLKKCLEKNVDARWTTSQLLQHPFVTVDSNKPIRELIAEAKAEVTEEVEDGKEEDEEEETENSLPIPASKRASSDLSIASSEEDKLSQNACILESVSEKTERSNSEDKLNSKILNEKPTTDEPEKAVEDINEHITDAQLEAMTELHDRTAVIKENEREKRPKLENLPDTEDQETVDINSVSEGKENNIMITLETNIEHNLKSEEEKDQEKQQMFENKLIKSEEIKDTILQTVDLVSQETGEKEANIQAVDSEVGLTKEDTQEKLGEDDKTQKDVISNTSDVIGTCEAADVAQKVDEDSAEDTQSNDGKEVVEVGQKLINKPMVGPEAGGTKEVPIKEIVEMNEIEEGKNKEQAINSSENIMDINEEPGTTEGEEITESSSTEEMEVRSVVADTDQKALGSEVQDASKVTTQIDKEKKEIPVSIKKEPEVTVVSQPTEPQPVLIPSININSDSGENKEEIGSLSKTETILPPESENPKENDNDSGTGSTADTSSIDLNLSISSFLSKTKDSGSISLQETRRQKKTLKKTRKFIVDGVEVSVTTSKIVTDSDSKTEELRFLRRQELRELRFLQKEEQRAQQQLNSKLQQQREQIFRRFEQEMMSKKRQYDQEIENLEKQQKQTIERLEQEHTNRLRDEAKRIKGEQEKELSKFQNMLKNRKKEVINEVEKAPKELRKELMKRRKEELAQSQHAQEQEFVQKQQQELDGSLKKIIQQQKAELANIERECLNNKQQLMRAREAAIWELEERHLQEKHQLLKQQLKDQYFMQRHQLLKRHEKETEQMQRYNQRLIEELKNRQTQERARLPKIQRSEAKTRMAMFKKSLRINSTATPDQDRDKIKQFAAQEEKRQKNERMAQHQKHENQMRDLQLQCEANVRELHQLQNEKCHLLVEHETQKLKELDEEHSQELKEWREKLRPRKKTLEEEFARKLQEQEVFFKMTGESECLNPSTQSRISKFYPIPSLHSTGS

| Compound | ΔTm [1] [°C] | ΔTm [2] [°C] | ΔTm [3] [°C] | ΔTm [4] [°C] | ΔTm [5] [°C] | ΔTm [6] [°C] | IC50 [7] [nM] | ΔTm [8] [°C] | ΔTm [9] [°C] | ΔTm [10] [°C] | ΔTm [11] [°C] | IC50 [12] [nM] | IC50 [13] [nM] | IC50 [14] [nM] |
| --- | --- | --- | --- | --- | --- | --- | --- | --- | --- | --- | --- | --- | --- | --- |
| COc1nccc(-c2c(-c3ccc(F)cc3)ncn2[C@H]2CC[C@H](O)CC2)n1 | -1 | 0.2 | 1.9 | -0.6 | 6.1 | 0 | 120 | 0.8 | 0.4 | -0.3 | 1.2 | – | – | – |
| c1ccc(-c2n[nH]c3c2oc2ccccc23)cc1 | 0.1 | -0.4 | 1.6 | 2.5 | 4.3 | 1 | – | 1.7 | 0.8 | 0 | 0.5 | ≥ 10000 | 300 | ≥ 10000 |
| C[S+]([O-])c1ccc(-c2nc(-c3ccc(F)cc3)c(-c3ccncc3)[nH]2)cc1 (centres undefined) [SB-203580] | -0.4 | 0.2 | – | 0 | 1 | -0.1 | 50 | 0.2 | 3.5 | 0.2 | 0.4 | – | – | – |
